Measured values: ChEMBL document CHEMBL1201862, “PubChem BioAssay data set” (2004)
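Each compound was tested at five concentrations against cells in 96-well plates for 48 hours. GI50 marks 50% less growth.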 Calls of active or inactive are those of the source. Cut-off read from the data, not from the text of the source: active = GI50 up to about 1.1 µM and inactive = higher.

Tests used:
Test in all cases: NCI tumour cell line growth inhibition, 48 h
786-0 = test system: 786-0
A498 = test system: A498
A549 = test system: A549
ACHN = test system: ACHN
CAKI-1 = test system: CAKI-1
CCRF-CEM = test system: CCRF-CEM
COLO 205 = test system: COLO 205
DLD-1 = test system: DLD-1
DMS-114 = test system: DMS-114
DMS-273 = test system: DMS-273
EKVX = test system: EKVX
HCC 2998 = test system: HCC 2998
HCT-116 = test system: HCT-116
HCT-15 = test system: HCT-15
HL-60 = test system: HL-60
HOP-62 = test system: HOP-62
HOP-92 = test system: HOP-92
K562 = test system: K562
KM-20L2 = test system: KM-20L2
KM12 = test system: KM12
LOX IMVI = test system: LOX IMVI
LXFL 529 = test system: LXFL 529
M14 = test system: M14
M19-MEL = test system: M19-MEL
MOLT-4 = test system: MOLT-4
Malme-3M = test system: Malme-3M
NCI-H226 = test system: NCI-H226
NCI-H23 = test system: NCI-H23
NCI-H460 = test system: NCI-H460
NCI-H522 = test system: NCI-H522
OVCAR-3 = test system: OVCAR-3
OVCAR-4 = test system: OVCAR-4
OVCAR-5 = test system: OVCAR-5
OVCAR-8 = test system: OVCAR-8
RPMI-8226 = test system: RPMI-8226
SF-268 = test system: SF-268
SF-539 = test system: SF-539
SK-MEL-28 = test system: SK-MEL-28
SK-MEL-2 = test system: SK-MEL-2
SK-MEL-5 = test system: SK-MEL-5
SN12C = test system: SN12C
SNB-19 = test system: SNB-19
SNB-75 = test system: SNB-75
SNB-78 = test system: SNB-78
SR = test system: SR
SW-620 = test system: SW-620
TK-10 = test system: TK-10
U-251 = test system: U-251
UACC-257 = test system: UACC-257
UACC-62 = test system: UACC-62
UO-31 = test system: UO-31
XF498 = test system: XF498

Measured: GI50

N#CC(c1nc2ccccc2nc1Cl)S(=O)(=O)c1ccccc1 (configuration not stated)
inactive: 786-0 > 100 µM | A498 > 100 µM | A549 > 100 µM | ACHN > 100 µM | CAKI-1 51.3 µM | CCRF-CEM 30.1 µM | COLO 205 > 100 µM | DLD-1 > 100 µM | DMS-114 > 100 µM | DMS-273 > 100 µM | EKVX > 100 µM | HCC 2998 65.9 µM | HCT-116 > 100 µM | HL-60 > 100 µM | HOP-62 > 100 µM | HOP-92 27.4 µM | K562 34.3 µM | KM-20L2 > 100 µM | KM12 > 100 µM | LOX IMVI 43.5 µM | LXFL 529 46.6 µM | M14 > 100 µM | M19-MEL > 100 µM | MOLT-4 32.4 µM | Malme-3M 56.9 µM | NCI-H226 > 100 µM | NCI-H23 37.5 µM | NCI-H460 > 100 µM | NCI-H522 30.7 µM | OVCAR-3 > 100 µM | OVCAR-4 53.3 µM | OVCAR-5 > 100 µM | OVCAR-8 74 µM | RPMI-8226 37.2 µM | SF-268 > 100 µM | SF-539 > 100 µM | SK-MEL-28 > 100 µM | SK-MEL-2 97.1 µM | SK-MEL-5 > 100 µM | SN12C 39.8 µM | SNB-19 > 100 µM | SNB-75 > 100 µM | SNB-78 25.8 µM | SR > 100 µM | SW-620 69.3 µM | TK-10 > 100 µM | U-251 83.8 µM | UACC-257 > 100 µM | UACC-62 35.8 µM | UO-31 43.8 µM | XF498 37.6 µM
54.1 µM: HCT-15
